# Measured values as given in patent US8367695B2, “Condensed tetrahydroquinoline derivative and use thereof for medical purposes” (Mitsubishi Tanabe Pharma Corporation, priority 2007, dated 2013).
# Biological target: T1, human recombinant progesterone receptor-B (PRB) (Homo sapiens, UniProt P06401)
# T1 construct: purchased Invitrogen (Carlsbad, Calif.)
# T1 sequence (P06401 1-933): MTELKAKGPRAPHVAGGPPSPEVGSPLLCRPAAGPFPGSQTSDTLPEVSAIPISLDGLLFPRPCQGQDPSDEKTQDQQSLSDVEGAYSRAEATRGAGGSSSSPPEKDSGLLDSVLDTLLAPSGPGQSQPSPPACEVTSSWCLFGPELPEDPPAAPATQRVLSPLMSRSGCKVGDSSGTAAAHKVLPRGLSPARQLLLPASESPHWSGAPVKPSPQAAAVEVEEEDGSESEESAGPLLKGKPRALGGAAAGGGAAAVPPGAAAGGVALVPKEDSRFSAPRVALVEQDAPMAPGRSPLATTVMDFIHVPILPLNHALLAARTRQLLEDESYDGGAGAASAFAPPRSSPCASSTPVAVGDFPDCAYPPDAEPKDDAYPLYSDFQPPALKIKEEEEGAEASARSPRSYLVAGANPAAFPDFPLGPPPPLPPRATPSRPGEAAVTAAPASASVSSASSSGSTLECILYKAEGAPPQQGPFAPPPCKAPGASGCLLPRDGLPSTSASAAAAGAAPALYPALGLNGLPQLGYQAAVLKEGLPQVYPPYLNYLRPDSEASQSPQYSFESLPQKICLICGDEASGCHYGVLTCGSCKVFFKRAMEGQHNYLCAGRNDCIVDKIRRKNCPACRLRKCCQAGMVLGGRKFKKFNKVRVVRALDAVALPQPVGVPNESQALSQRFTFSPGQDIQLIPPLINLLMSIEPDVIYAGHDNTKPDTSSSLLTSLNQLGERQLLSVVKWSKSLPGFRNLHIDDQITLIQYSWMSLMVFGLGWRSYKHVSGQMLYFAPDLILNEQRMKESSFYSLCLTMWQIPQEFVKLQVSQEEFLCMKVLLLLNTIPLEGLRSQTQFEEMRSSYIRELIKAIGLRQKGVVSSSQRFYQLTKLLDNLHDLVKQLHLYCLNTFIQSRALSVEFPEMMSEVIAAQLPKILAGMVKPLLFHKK
# Assay: Radioactive ligand binding test, PRB cytosol, [3H]-Prog
# Settings: [3H]-Prog about 5 nM, PRB cytosol, 4° C.; Cheng-Prusoff, Kd about 3.5 nM; read-out: PR (Ki: nM)
# Source text: Radioactive Ligand Binding Test Using Cytosols of Human Glucocorticoids Receptor, Progesterone Receptor and Mineralocorticoid Receptor
# The procedures described in Neuroimmunomodulation (1994, 1, p. 66-73) and Invest. Opthalmol. Vis. Sci. (1996, 37, p. 805-813) were modified and used. In brief, cytosol preparations of human recombinant glucocorticoids receptor (GR) and human recombinant progesterone receptor-B (PRB) were purchased from Invitrogen (Carlsbad, Calif.), and a cytosol preparation of human recombinant mineralocorticoid receptor (MR) was prepared by our company (Yokohama, JP). MR cDNA was cloned into a baculovirus expression vector and expressed in insect cell Sf9. The procedures described in J. Biol. Chem. (1991, 266, p. 18072-18081), Proc. Natl. Acad. Sci. USA (1991, 88, p. 10681-10685) and Bac-to-Bac (registered trade mark) Baculovirus Expression Systems technical manual (Invitrogen) were partly modified and used as the procedures for MR gene cloning up to preparation of recombinant receptor cytosol. [^3H]-Dexamethasone (Dex, specific activity 91.0 Ci/mmol) was purchased from GE Healthcare (Buckinghamshire, UK), and [^3H]-progesterone (Prog, specific activity 103 Ci/mmol) and [3H]-aldosterone (Ald, specific activity 87.9 Ci/mmol) were each purchased from PerkinElmer (Boston, Mass.). Polypropylene round-bottomed 96 well plate was obtained from ABgene (Epsom, UK). Dimethyl Sulfoxide (DMSO) and hydrochloric acid were obtained from Kanto Chemical (TOKYO, JP). Trizma Base (Tris), Bovine Serum Albumin (BSA) and Sodium tungstate dihydrate were obtained from Sigma Chemicals (St. Louis, Mo.). Dithiothreitol (DTT) and Dextran 70 were obtained from GE Healthcare (Buckinghamshire, UK). Glycerol was obtained from Junsei Chemical (TOKYO, JP). Norit® “SX-II” was obtained from Wako Pure Chemical Industries, Ltd. (Osaka, JP). MeltiLex™, A, Printed Filtermat A and Sample Bag were obtained from PerkinElmer (Boston, Mass.).
# As a buffer for GR binding assay, 25 mM Tris-HCl (4° C., pH 7.4)/1 mM EDTA·2Na/1 mM DTT/0.1% BSA was prepared and used. As buffers for PRB and MR binding assay, 10 mM Tris-HCl (4° C., pH 7.4)/1 mM DTT/0.1% BSA/10% glycerol and 20 mM Tris-HCl (4° C., pH 7.4)/1 mM EDTA·2Na/10% glycerol/20 mM sodium tungstate were respectively prepared and used. As dextran-coated charcoal (DCC) for B/F separation, 0.75% Dextran 70/0.75% Norit® SX-II/10 mM Tris-HCl (4° C., pH 7.4) was prepared and used.
# Compound storage solutions (5-20 mM) were prepared using DMSO. The storage solutions were diluted with DMSO to 0.1 mM (for GR) and 0.3 mM (for PRB and MR), and further diluted 20-fold with distilled water to give solutions. Then, the preparations were diluted to each concentration with 5% DMSO solution. 1% DMSO was present at the time of the binding assay.
# In the case of PRB binding assay, [^3H]-Prog (about 5 nM), PRB cytosol (concentration of function receptor: about 4 pmol/mL), a test compound and a binding buffer were mixed in a total volume of 50 μL, and the mixture was stood at 4° C. for 30 min or longer. A specific binding was defined to be the difference in the [^3H]-Prog binding between the presence and the absence of 1 μM unlabeled Prog.
# After the reaction, 50 μL of DCC was added to each well and blended. Thereafter, the mixture was stood at 4° C. for 10 min. The plate was applied to high-speed cooling centrifuge under the conditions of 4° C., 2000 rpm, 5 min to perform B/F separation. A given amount of the supernatant was recovered, which was spotted on Filtermat A of 96 well format (PerkinElmer) and rapidly dried at a high temperature. Then, solid scintillator MeltiLex A (PerkinElmer) was melted on Filtermat A. The mixture was placed in a Sample Bag (PerkinElmer), and the level of radioactivity was measured by plate reader 1450 Micro Beta TRILUX (PerkinElmer).
# Measurement of Inhibition Constant (Ki)
row,Ki [nM],Structure (SMILES)
1,> 1250,"Cc1onc(CO)c1-c1cc2c(c3ccoc13)NC(C)(C)C(=O)C2(C)C [Example 94, 6-(3-hydroxymethyl-5-methylisoxazol-4-yl)-2,2,4,4-tetramethyl-1,2,3,4-tetrahydro-furo[2,3-h]quinolin-3-one]"
2,1050,"CC1(C)Nc2c(cc(-c3cccc4nccn34)c3occc23)C(C)(C)C1=O [Example 98, 6-(imidazo[1,2-a]pyridin-5-yl)-2,2,4,4-tetramethyl-1,2,3,4-tetrahydro-furo[2,3-h]quinolin-3-one]"
3,> 1250,"CC1(C)Nc2c(cc(-c3cncc4nccn34)c3occc23)C(C)(C)C1=O [Example 100, 6-(imidazo[1,2-a]pyrazin-5-yl)-2,2,4,4-tetramethyl-1,2,3,4-tetrahydro-furo[2,3-h]quinolin-3-one]"
4,1220,"CC1(C)Nc2c(cc(-c3cccc4ncccc34)c3occc23)C(C)(C)C1=O [Example 101, 2,2,4,4-tetramethyl-6-(quinolin-5-yl)-1,2,3,4-tetrahydro-furo [2,3-h]quinolin-3-one]"
5,> 1250,"CC1(C)Nc2c(cc(-c3ccnc4ncccc34)c3occc23)C(C)(C)C1=O [Example 102, 2,2,4,4-tetramethyl-6-([1,8]naphthyridin-4-yl)-1,2,3,4-tetrahydro-furo[2,3-h]quinolin-3-one]"
6,> 1250,"Cc1noc(C)c1-c1cc2c(c3c1C(=O)CC3)NC(C)(C)C(=O)C2(C)C [Example 104, 6-(3,5-dimethylisoxazol-4-yl)-2,2,4,4-tetramethyl-2,3,4,7,8,9-hexahydro-1H-cyclopenta[h]quinoline-3,7-dione]"
